{"source": "PubChem BioAssay AID540314", "about": "(Broad Institute, 2011)", "note": "Results filed as inconclusive are left out. Activity calls are given as the source filed them.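 Rule for the calls: active = compounds whose fitted half-maximal potency is at most ten times their top valid tested dose, reducing viability; inconclusive = flat curve with 30 to 70% viability loss, or poor fit; inactive = the rest.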", "data": [{"test_system": "not listed separately", "test": "cytotoxicity toward BJeHLT engineered cells – cell-based, plate reader, dry powder, set 4, counter-screen for Ras selective lethality project, dose response (AID 540314)", "conditions": "BJeHLT fibroblasts viability, Alamar Blue fluorescence, 48 h; at 48 µM (top of the series)", "values": [{"smiles": "Cc1onc(C(=O)N2CCN(Cc3ccccc3)CC2)c1[N+](=O)[O-]", "activity change, negative = less viable": "8.05% (inactive)"}]}, {"test_system": "BJeHLT fibroblasts viability, Alamar Blue fluorescence, 48 h", "test": "cytotoxicity toward BJeHLT engineered cells – cell-based, plate reader, dry powder, set 4, counter-screen for Ras selective lethality project, dose response (AID 540314)", "conditions": "not given", "units": {"AC50": "µM"}, "values": [{"smiles": "Cc1onc(C(=O)N2CCN(C(c3ccccc3)c3ccccc3)CC2)c1[N+](=O)[O-]", "AC50": 7.25}, {"smiles": "COc1ccc(C(c2ccc(OC)cc2)N2CCN(C(=O)c3ccc([N+](=O)[O-])o3)CC2)cc1", "AC50": 6.87}, {"smiles": "Cc1onc(C(=O)N2CCN(C(c3ccc(Cl)cc3)c3ccc(Cl)cc3)CC2)c1[N+](=O)[O-]", "AC50": 0.844}, {"smiles": "COC(=O)c1ccc([C@@H]2c3[nH]c4ccccc4c3C[C@@H](C(=O)OC)N2C(=O)CCl)cc1", "AC50": 1.57}, {"smiles": "O=C(c1ccc([N+](=O)[O-])o1)N1CCN(C(c2ccc(F)cc2)c2ccc(F)cc2)CC1", "AC50": 14.8}, {"smiles": "Cc1onc(C(=O)N2CCN(C(c3ccc(F)cc3)c3ccc(F)cc3)CC2)c1[N+](=O)[O-]", "AC50": 2.12}, {"smiles": "O=C(NCCNC(c1ccccc1)c1ccccc1)c1ccc([N+](=O)[O-])o1", "AC50": 4.66}, {"smiles": "CCOc1ccccc1-n1c(C(C)N2CCN(C(=O)COc3ccc(Cl)cc3)CC2)nc2ccccc2c1=O", "note": "(stereo not given)", "AC50": 4.19}, {"smiles": "Cc1onc(C(=O)N2CCN(C(c3ccccc3)c3ccc(Cl)cc3)CC2)c1[N+](=O)[O-]", "note": "(stereo not given)", "AC50": 2.04}]}]}
